{"source": "patent US10525044B2", "about": "“Treatment for chemotherapy-induced peripheral neuropathy” (priority 2013, dated 2020)", "key": {"[1]": {"system": "human lung cancer cell line H460", "experiment": "LDH assay (membrane integrity) in H460 cancer cells", "assay_type": "cell-based", "experimental": "Cancer Cell Culture. The mouse liver cancer cell line BNLT3 (gift of Dr. Jack Wands, Brown University) and the human lung cancer cell line H460 (ATCC) were seeded into 96-well plates at a density of 4,000 cells/well and cultured at 37° C., 5% CO2, in DMEM (11965, Gibco) supplemented with 10% fetal bovine serum, 20 mM HEPES, 1 mM sodium pyruvate, and […] gentamycin (all reagents came from Gibco).\nCell Insults and Treatments. Determination of concentration for each anticancer drug in our experiments was based on its reported concentration in human cerebral spinal fluid (CSF) in chemotherapy, literature report of its neurotoxicity in culture, and our preliminary in vitro experimental data. […] […] PAN-811.Cl.H2O was added to cultures to final concentrations of 1.25, 2.5, 5, and 10 μM at the same time as addition of the anticancer drugs. For cancer cell lines, the cells were insulted by the second day of cell seeding with the same concentration of MTX, 5-FU, or CDDP as used in neuronal culture in the absence or presence of 10 μM PAN-811.Cl.H2O for another 3 days.\n(§1) Quantitative Assays and Morphological Assessment. Cell membrane integrity and mitochondrial function of either neurons or cancer cells were measured with LDH and 3-(4,5-dimethylthiazol-2-yl)-5-(3-carboxymethoxyphenyl)-2-(4-sulfophenyl)-2H-tetrazolium [MTS] analyses, respectively. The latter has been used to quantify cell survival. For the LDH assay, a mixture of a 35 μL aliquot of culture supernatant and 17.5 μL of Mixed Substrate, Enzyme and Dye Solutions (Sigma) was incubated at room temperature (RT) for 30 minutes. For the MTS assay, 10 μL of MTS reagent (Promega) was added to a culture well containing neurons in 50 μL of medium. The preparations were incubated at 37° C. for 2 hours. The preparations for both assays were then spectrophotometrically measured at 490 nm using a 96-well plate reader (Mode 550, Bio-Rad). Neuronal cell death was morphologically determined based on the integrity of the cell soma and continuity of neuronal processes. The change in number of cancer cells was judged directly by cell density. Cells were photographed under an inverted phase contrast microscope (IX 70, Olympus) using 10× or 20× objective.\n(§2) Data Analysis. Data were generated from 4-6 replicate wells, expressed as mean±standard deviation (SD), and statistically evaluated at a significance level of 1% with one factor ANOVA or Student's t-test by using software VASSARSTATS (http://vassarstats.net/) followed by the Tukey HSD test. Figure symbols are as follows: #, P<0.05, and ##, P<0.01, compared with control; *, P<0.05, and **, P<0.01, compared with the insulted group; §§, P<0.01, compared with PAN-811 treated group by Student's t-test."}, "[2]": {"settings": "cell-free system, EDTA as positive control; cited from earlier work"}, "[3]": {"system": "mixed cortical and striatal neurons", "experiment": "LDH assay (cell membrane integrity) in neuronal cell culture", "assay_type": "cell-based", "experimental": "Neuronal Cell Culture. Mixed cortical and striatal neurons fromembryonic day 17 male Sprague-Dawley rats (tissue obtained from NIH) were seeded into poly-D-lysine coated 96-well plates at density of 50,000 cells/well and initially cultured at 37° C., 5% CO2, in neurobasal medium (NB) with B27 supplement (Invitrogen) containing full strength of AOs to obtain highly enriched (95%) neurons. Since AOs, including vitamin E, vitamin E acetate, superoxide dismutase (SOD), catalase (CAT), and GSH, are additives to culture medium, reduction of AO concentration in culture medium provides an approach to determine the level of OS involvement in a neurotoxic process. In our study, the culture medium was replaced at a 50% ratio with NB plus B27 minus AOs twice at days 7 and 9 to set AO concentrations as 50% and 25%, respectively. At 16 days in vitro (d.i.v.), a fraction of the culture medium was harvested for lactate dehydrogenase (LDH) assay, and then AO concentration was reduced to 12.5% and cultured for a further 5 hours prior to ending the experiment.\nCell Insults and Treatments. Determination of concentration for each anticancer drug in our experiments was based on its reported concentration in human cerebral spinal fluid (CSF) in chemotherapy, literature report of its neurotoxicity in culture, and our preliminary in vitro experimental data. At 13 d.i.v., the neuronal cell cultures were insulted with 100 μM of MTX (M9929, Sigma), 25 μM of 5-FU (F6627, Sigma), or 3.5 μM of CDDP (sc-200896, Santa Cruz) for 3 days in absence or presence of PAN 811.Cl.H2O. For ROS examination, the neurons were insulted with both 100 μM of MTX and 25 μM of 5-FU by 15 d.i.v. PAN-811.Cl.H2O was added to cultures to final concentrations of 1.25, 2.5, 5, and 10 μM at the same time as addition of the anticancer drugs. For cancer cell lines, the cells were insulted by the second day of cell seeding with the same concentration of MTX, 5-FU, or CDDP as used in neuronal culture in the absence or presence of 10 μM PAN-811.Cl.H2O for another 3 days.\nas §1, §2"}}, "note": "Where “and” joins values, the source holds several entries; their conditions need not be identical. Equal values may be shown once."}
{"smiles": "NC(=S)N/N=C/c1ncccc1N", "note": "[PAN-811, 3-aminopyridine-2-carboxaldehyde thiosemicarbazone]", "values": [{"measurement": "increase in LDH reading, cotreatment with CDDP", "setting": "[1]; 3.5 μM CDDP and 10 μM PAN-811, 3 days", "value": 57, "unit": "%"}, {"measurement": "effect on MTX-, 5-FU-, or CDDP-induced membrane leakage", "setting": "[1]; 10 μM PAN-811", "value": "inhibitory effect"}, {"measurement": "reduction of LDH reading compared with MTX group, cotreatment", "setting": "[1]; 100 μM MTX and 10 μM PAN-811, 3 days", "value": 70, "unit": "%"}, {"measurement": "increase in LDH reading in culture supernatant", "setting": "[1]; each agent alone, 3 days: MTX 100 μM, 5-FU 25 μM, CDDP 3.5 μM, PAN-811 10 μM", "value": "31% and 30%"}, {"measurement": "chelation of free calcium", "setting": "[2]", "value": "as efficiently as EDTA"}, {"measurement": "LDH release in CDDP-insulted cultures", "setting": "[3]; 5 μM PAN-811, 3.5 μM CDDP", "value": "fully blocked"}, {"measurement": "LDH release in 5-FU-insulted cultures", "setting": "[3]; 5 μM PAN-811, 25 μM 5-FU", "value": "fully blocked"}, {"measurement": "LDH release in MTX-insulted cultures", "setting": "[3]; 5 μM PAN-811, 100 μM MTX", "value": "fully blocked"}, {"measurement": "MTX/5-FU-elicited LDH increase", "setting": "[3]; 10 μM PAN-811, 100 μM MTX and 25 μM 5-FU", "value": "fully inhibited"}, {"measurement": "suppression of MTX/5-FU-elicited LDH release, concentration dependence", "setting": "[3]; PAN-811 1.25 to 10 μM, 100 μM MTX and 25 μM 5-FU", "value": "concentration-dependent suppression"}, {"measurement": "LDH increase caused by each anticancer drug, dose dependence", "setting": "[3]; neurons, MTX 100 μM, 5-FU 25 μM or CDDP 3.5 μM", "value": "dose-dependently suppressed"}]}
